Data taken from the NIST ThermoML archive (doi:10.1021/je050366x).
Where “and” joins values, the source holds several entries; their conditions need not be identical. Equal entries are not always repeated. Numbers after ± are expanded uncertainties.

Assay: xn = mol fraction of the nth substance listed
Details: for surface tension liquid-gas: Ring tensiometer; for mass density: 100 kPa, Liquid

## O=C(O)CC(=O)O [propanedioic acid] + O
278.1 K, x1 = 0.06
  surface tension liquid-gas: 66.5 ± 1.1 mN/m
279.3 K, x1 = 0.06
  surface tension liquid-gas: 66 ± 1.1 mN/m
279.7 K, x1 = 0.06
  surface tension liquid-gas: 65.9 ± 1.1 mN/m
282.6 K, x1 = 0.06
  surface tension liquid-gas: 66 ± 1.1 mN/m
285 K, x1 = 0.06
  surface tension liquid-gas: 65.7 ± 1.1 mN/m
286.5 K, x1 = 0.06
  surface tension liquid-gas: 65.6 ± 1.1 mN/m
287.8 K, x1 = 0.06
  surface tension liquid-gas: 65.4 ± 1.1 mN/m
288.7 K, x1 = 0.06
  surface tension liquid-gas: 65.2 ± 1.1 mN/m
289.6 K, x1 = 0.06
  surface tension liquid-gas: 65.3 ± 1.1 mN/m
290.9 K, x1 = 0.06
  surface tension liquid-gas: 64.6 ± 1.1 mN/m
291.1 K, x1 = 0.06
  surface tension liquid-gas: 65 ± 1.1 mN/m
293 K, x1 = 0.06
  surface tension liquid-gas: 64.6 ± 1.1 mN/m
295.3 K, x1 = 0.06
  surface tension liquid-gas: 64.7 ± 1.1 mN/m
296.7 K, x1 = 0.06
  surface tension liquid-gas: 64.1 ± 1.1 mN/m
297.1 K, x1 = 0.06
  surface tension liquid-gas: 64.1 ± 1.1 mN/m
298 K, x1 = 0.01
  surface tension liquid-gas: 69.2 ± 1.1 mN/m
298 K, x1 = 0.017
  surface tension liquid-gas: 68.5 ± 1.1 mN/m
298 K, x1 = 0.025
  surface tension liquid-gas: 66.7 ± 1.1 mN/m
298 K, x1 = 0.033
  surface tension liquid-gas: 66.7 ± 1.1 mN/m
298 K, x1 = 0.04
  surface tension liquid-gas: 65.6 ± 1.1 mN/m
298 K, x1 = 0.05
  surface tension liquid-gas: 65.6 ± 1.1 mN/m
298 K, x1 = 0.055
  surface tension liquid-gas: 65.5 ± 1.1 mN/m
298 K, x1 = 0.065
  surface tension liquid-gas: 65 ± 1.1 mN/m
298 K, x1 = 0.07
  surface tension liquid-gas: 64.2 ± 1.1 mN/m
298 K, x1 = 0.08
  surface tension liquid-gas: 63.5 ± 1.1 mN/m
298 K, x1 = 0.088
  surface tension liquid-gas: 64.2 ± 1.1 mN/m
298 K, x1 = 0.094
  surface tension liquid-gas: 63.5 ± 1.1 mN/m
298 K, x1 = 0.107
  surface tension liquid-gas: 62.7 ± 1 mN/m
298 K, x1 = 0.122
  surface tension liquid-gas: 62.3 ± 1 mN/m
298 K, x1 = 0.137
  surface tension liquid-gas: 62.2 ± 1 mN/m
298 K, x1 = 0.149
  surface tension liquid-gas: 62.6 ± 1 mN/m
298 K, x1 = 0.158
  surface tension liquid-gas: 62.2 ± 1 mN/m
298 K, Pycnometric method, x1 = 0.009
  mass density: 1016 ± 1 kg/m3
298 K, Pycnometric method, x1 = 0.03
  mass density: 1054 ± 1 kg/m3
298 K, Pycnometric method, x1 = 0.041
  mass density: 1068 ± 1 kg/m3
298 K, Pycnometric method, x1 = 0.055
  mass density: 1090 ± 1 kg/m3
298 K, Pycnometric method, x1 = 0.069
  mass density: 1108 ± 1 kg/m3
298 K, Pycnometric method, x1 = 0.085
  mass density: 1129 ± 1 kg/m3
298 K, Pycnometric method, x1 = 0.102
  mass density: 1152 ± 1 kg/m3
298 K, Pycnometric method, x1 = 0.147
  mass density: 1196 ± 1 kg/m3
298.2 K, x1 = 0.06
  surface tension liquid-gas: 63.8 ± 1.1 mN/m
299 K, x1 = 0.06
  surface tension liquid-gas: 63.6 ± 1.1 mN/m
299.1 K, x1 = 0.06
  surface tension liquid-gas: 63.9 ± 1.1 mN/m
301.2 K, x1 = 0.06
  surface tension liquid-gas: 64 ± 1.1 mN/m
303.3 K, x1 = 0.06
  surface tension liquid-gas: 63 ± 1.1 mN/m

## O=C(O)/C=C\C(=O)O [cis-1,4-butenedioic acid] + O
278.3 K, x1 = 0.012
  surface tension liquid-gas: 69.9 ± 1.2 mN/m
278.7 K, x1 = 0.06
  surface tension liquid-gas: 64.3 ± 1.1 mN/m
279.2 K, x1 = 0.012
  surface tension liquid-gas: 69.8 ± 1.2 mN/m
280.4 K, x1 = 0.06
  surface tension liquid-gas: 64.4 ± 1.1 mN/m
280.5 K, x1 = 0.06
  surface tension liquid-gas: 64.4 ± 1.1 mN/m
283.5 K, x1 = 0.012
  surface tension liquid-gas: 69.2 ± 1.1 mN/m
283.5 K, x1 = 0.06
  surface tension liquid-gas: 63.7 ± 1.1 mN/m
283.7 K, x1 = 0.012
  surface tension liquid-gas: 69.4 ± 1.1 mN/m
284.2 K, x1 = 0.06
  surface tension liquid-gas: 64 ± 1.1 mN/m
284.7 K, x1 = 0.06
  surface tension liquid-gas: 63.9 ± 1.1 mN/m
284.9 K, x1 = 0.06
  surface tension liquid-gas: 63.5 ± 1.1 mN/m
287.4 K, x1 = 0.012
  surface tension liquid-gas: 68.7 ± 1.1 mN/m
287.9 K, x1 = 0.012
  surface tension liquid-gas: 68.6 ± 1.1 mN/m
288.4 K, x1 = 0.06
  surface tension liquid-gas: 63.4 ± 1.1 mN/m
288.6 K, x1 = 0.06
  surface tension liquid-gas: 63.6 ± 1.1 mN/m
288.8 K, x1 = 0.06
  surface tension liquid-gas: 63.1 ± 1 mN/m
289.1 K, x1 = 0.06
  surface tension liquid-gas: 63.2 ± 1.1 mN/m
292.8 K, x1 = 0.012
  surface tension liquid-gas: 68 ± 1.1 mN/m and 68.2 ± 1.1 mN/m
292.8 K, x1 = 0.06
  surface tension liquid-gas: 62.8 ± 1 mN/m
292.9 K, x1 = 0.06
  surface tension liquid-gas: 62.6 ± 1 mN/m
293.4 K, x1 = 0.06
  surface tension liquid-gas: 62.9 ± 1 mN/m
296.2 K, x1 = 0.06
  surface tension liquid-gas: 62.1 ± 1 mN/m
297 K, x1 = 0.012
  surface tension liquid-gas: 67.5 ± 1.1 mN/m
297.1 K, x1 = 0.06
  surface tension liquid-gas: 62.4 ± 1 mN/m
297.2 K, x1 = 0.012
  surface tension liquid-gas: 67.7 ± 1.1 mN/m
297.5 K, x1 = 0.012
  surface tension liquid-gas: 67.6 ± 1.1 mN/m
297.7 K, x1 = 0.06
  surface tension liquid-gas: 62.3 ± 1 mN/m
298 K, x1 = 0.008
  surface tension liquid-gas: 68 ± 1.1 mN/m
298 K, x1 = 0.0116
  surface tension liquid-gas: 67.6 ± 1.1 mN/m
298 K, x1 = 0.017
  surface tension liquid-gas: 65.9 ± 1.1 mN/m
298 K, x1 = 0.0267
  surface tension liquid-gas: 64.1 ± 1.1 mN/m
298 K, x1 = 0.0374
  surface tension liquid-gas: 61.4 ± 1 mN/m
298 K, x1 = 0.0376
  surface tension liquid-gas: 61.4 ± 1 mN/m
298 K, x1 = 0.0489
  surface tension liquid-gas: 62.2 ± 1 mN/m
298 K, x1 = 0.0579
  surface tension liquid-gas: 61.2 ± 1 mN/m
298 K, x1 = 0.06
  surface tension liquid-gas: 62.3 ± 1 mN/m
298 K, x1 = 0.0627
  surface tension liquid-gas: 60.4 ± 1 mN/m
298 K, x1 = 0.0764
  surface tension liquid-gas: 58.8 ± 1 mN/m
298 K, x1 = 0.085
  surface tension liquid-gas: 60.3 ± 1 mN/m
298 K, x1 = 0.0932
  surface tension liquid-gas: 59.7 ± 1 mN/m
298 K, x1 = 0.1083
  surface tension liquid-gas: 59.5 ± 1 mN/m
298 K, Pycnometric method, x1 = 0.008
  mass density: 1016 ± 1 kg/m3
298 K, Pycnometric method, x1 = 0.017
  mass density: 1031 ± 1 kg/m3
298 K, Pycnometric method, x1 = 0.027
  mass density: 1048 ± 1 kg/m3
298 K, Pycnometric method, x1 = 0.037
  mass density: 1063 ± 1 kg/m3
298 K, Pycnometric method, x1 = 0.049
  mass density: 1084 ± 1 kg/m3
298 K, Pycnometric method, x1 = 0.062
  mass density: 1103 ± 1 kg/m3
298 K, Pycnometric method, x1 = 0.077
  mass density: 1121 ± 1 kg/m3
298 K, Pycnometric method, x1 = 0.094
  mass density: 1135 ± 1 kg/m3
300.9 K, x1 = 0.06
  surface tension liquid-gas: 61.4 ± 1 mN/m
301.2 K, x1 = 0.06
  surface tension liquid-gas: 61.5 ± 1 mN/m
301.6 K, x1 = 0.06
  surface tension liquid-gas: 61.8 ± 1 mN/m
302 K, x1 = 0.06
  surface tension liquid-gas: 61.8 ± 1 mN/m
302.3 K, x1 = 0.012
  surface tension liquid-gas: 66.9 ± 1.1 mN/m
302.7 K, x1 = 0.012
  surface tension liquid-gas: 66.8 ± 1.1 mN/m

## O=C(O)CC(O)C(=O)O (configuration not stated) [hydroxybutanedioic acid] + O
279.3 K, x1 = 0.06
  surface tension liquid-gas: 71 mN/m
280.5 K, x1 = 0.06
  surface tension liquid-gas: 70.8 mN/m
281.3 K, x1 = 0.06
  surface tension liquid-gas: 70.6 mN/m
281.7 K, x1 = 0.06
  surface tension liquid-gas: 70.6 mN/m
283.6 K, x1 = 0.06
  surface tension liquid-gas: 70.3 mN/m
283.7 K, x1 = 0.06
  surface tension liquid-gas: 70.1 mN/m
284.6 K, x1 = 0.06
  surface tension liquid-gas: 70.3 mN/m
285 K, x1 = 0.06
  surface tension liquid-gas: 70.2 mN/m
288.3 K, x1 = 0.06
  surface tension liquid-gas: 69.7 mN/m
288.5 K, x1 = 0.06
  surface tension liquid-gas: 69.5 mN/m
289.2 K, x1 = 0.06
  surface tension liquid-gas: 69.7 mN/m
289.3 K, x1 = 0.06
  surface tension liquid-gas: 69.5 mN/m
292.7 K, x1 = 0.06
  surface tension liquid-gas: 68.7 mN/m
293.2 K, x1 = 0.06
  surface tension liquid-gas: 68.7 mN/m
293.4 K, x1 = 0.06
  surface tension liquid-gas: 69.1 mN/m
293.7 K, x1 = 0.06
  surface tension liquid-gas: 68 mN/m
297.1 K, x1 = 0.06
  surface tension liquid-gas: 68.2 mN/m
297.2 K, x1 = 0.06
  surface tension liquid-gas: 67.9 mN/m
297.6 K, x1 = 0.06
  surface tension liquid-gas: 68.4 mN/m
297.7 K, x1 = 0.06
  surface tension liquid-gas: 68 mN/m
298 K, x1 = 0.003
  surface tension liquid-gas: 70.3 ± 1.2 mN/m
  mass density: 1006 ± 2 kg/m3
298 K, x1 = 0.007
  surface tension liquid-gas: 70.1 ± 1.2 mN/m
298 K, x1 = 0.015
  surface tension liquid-gas: 69.8 ± 1.1 mN/m
  mass density: 1037 ± 2 kg/m3
298 K, x1 = 0.023
  surface tension liquid-gas: 69.3 ± 1.1 mN/m
  mass density: 1051 ± 2 kg/m3
298 K, x1 = 0.032
  surface tension liquid-gas: 69.3 ± 1.1 mN/m
  mass density: 1079 ± 2 kg/m3
298 K, x1 = 0.043
  surface tension liquid-gas: 68.4 ± 1.1 mN/m
298 K, x1 = 0.054
  surface tension liquid-gas: 68.4 ± 1.1 mN/m
  mass density: 1115 ± 2 kg/m3
298 K, x1 = 0.058
  surface tension liquid-gas: 68.1 ± 1.1 mN/m
298 K, x1 = 0.07
  surface tension liquid-gas: 67.8 ± 1.1 mN/m
298 K, x1 = 0.082
  surface tension liquid-gas: 67.3 ± 1.1 mN/m
298 K, x1 = 0.087
  surface tension liquid-gas: 66.8 ± 1.1 mN/m
298 K, x1 = 0.075
  mass density: 1146 ± 2 kg/m3
298 K, x1 = 0.096
  mass density: 1182 ± 2 kg/m3
298.2 K, x1 = 0.06
  surface tension liquid-gas: 67.8 mN/m
301.9 K, x1 = 0.06
  surface tension liquid-gas: 67.5 mN/m
302.1 K, x1 = 0.06
  surface tension liquid-gas: 68.1 mN/m
302.3 K, x1 = 0.06
  surface tension liquid-gas: 67.9 mN/m
